We go through 32 compounds from BindingDB's records for doi:10.1021/jm9704863 (Cor Therapeutics, 1998).

In the first test the target is Integrin alpha-IIb/beta-3 (Homo sapiens, UniProt P08514+P05106). Description: Inhibition of platelet aggregation induced by 20 uM adenosine 5'-diphosphate (ADP) in human platelet rich plasma (h-PRP).
Sequence of Integrin alpha-IIb/beta-3 (P05106 27-788 limits assumed): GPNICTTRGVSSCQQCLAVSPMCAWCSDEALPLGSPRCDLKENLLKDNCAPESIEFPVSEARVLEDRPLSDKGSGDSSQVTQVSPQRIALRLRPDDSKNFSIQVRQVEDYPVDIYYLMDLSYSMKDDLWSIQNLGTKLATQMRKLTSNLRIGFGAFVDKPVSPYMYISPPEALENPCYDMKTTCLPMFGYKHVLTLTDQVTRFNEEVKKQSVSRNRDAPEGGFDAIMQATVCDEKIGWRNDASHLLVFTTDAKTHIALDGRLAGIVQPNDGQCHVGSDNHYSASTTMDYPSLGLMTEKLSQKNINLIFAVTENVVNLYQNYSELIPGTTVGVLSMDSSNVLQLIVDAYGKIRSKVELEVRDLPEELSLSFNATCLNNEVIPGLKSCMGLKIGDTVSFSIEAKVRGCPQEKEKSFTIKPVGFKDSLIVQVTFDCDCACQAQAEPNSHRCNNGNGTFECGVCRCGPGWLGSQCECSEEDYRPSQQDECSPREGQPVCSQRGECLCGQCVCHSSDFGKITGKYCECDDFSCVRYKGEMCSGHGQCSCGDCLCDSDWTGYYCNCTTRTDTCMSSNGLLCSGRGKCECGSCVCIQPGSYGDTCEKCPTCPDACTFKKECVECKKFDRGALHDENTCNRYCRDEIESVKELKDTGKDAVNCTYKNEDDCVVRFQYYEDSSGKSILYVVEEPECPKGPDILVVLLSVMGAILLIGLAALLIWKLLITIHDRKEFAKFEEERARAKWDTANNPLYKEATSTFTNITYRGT
Sequence of Integrin alpha-IIb/beta-3 (P08514 32-887 limits assumed): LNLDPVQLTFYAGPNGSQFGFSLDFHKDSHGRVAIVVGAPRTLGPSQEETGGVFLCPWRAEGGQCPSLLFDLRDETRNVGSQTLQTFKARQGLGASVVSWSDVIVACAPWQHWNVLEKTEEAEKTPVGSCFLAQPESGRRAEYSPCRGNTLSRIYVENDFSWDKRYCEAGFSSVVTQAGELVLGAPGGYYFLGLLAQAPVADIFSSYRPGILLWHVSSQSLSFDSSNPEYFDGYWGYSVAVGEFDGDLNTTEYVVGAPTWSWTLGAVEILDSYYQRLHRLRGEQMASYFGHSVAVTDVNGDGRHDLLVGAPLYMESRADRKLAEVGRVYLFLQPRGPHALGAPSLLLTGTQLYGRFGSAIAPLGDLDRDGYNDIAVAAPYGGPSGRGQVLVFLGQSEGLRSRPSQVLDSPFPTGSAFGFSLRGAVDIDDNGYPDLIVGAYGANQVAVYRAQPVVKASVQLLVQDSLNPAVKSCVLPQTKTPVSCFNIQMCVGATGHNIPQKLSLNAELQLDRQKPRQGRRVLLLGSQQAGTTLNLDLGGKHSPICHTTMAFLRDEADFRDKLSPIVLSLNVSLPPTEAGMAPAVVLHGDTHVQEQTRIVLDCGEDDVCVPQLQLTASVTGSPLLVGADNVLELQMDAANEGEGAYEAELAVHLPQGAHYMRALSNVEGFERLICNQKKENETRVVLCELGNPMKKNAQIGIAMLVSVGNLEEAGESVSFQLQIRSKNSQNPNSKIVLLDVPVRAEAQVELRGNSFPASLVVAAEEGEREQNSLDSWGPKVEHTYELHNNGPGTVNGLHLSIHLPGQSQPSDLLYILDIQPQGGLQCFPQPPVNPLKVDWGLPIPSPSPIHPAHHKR
Sequence of Integrin alpha-IIb/beta-3 (P08514 891-1039 limits assumed): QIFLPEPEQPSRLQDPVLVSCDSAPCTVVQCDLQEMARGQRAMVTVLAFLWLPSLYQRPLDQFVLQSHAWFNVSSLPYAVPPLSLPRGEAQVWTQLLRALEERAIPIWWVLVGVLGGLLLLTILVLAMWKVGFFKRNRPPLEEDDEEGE
As a reminder, the IC50 is the concentration that gives 50% inhibition. A low value points to greater potency in that assay. `N=C(N)c1ccc2[nH]c(C(=O)N3CCC(C(=O)NC(CC(=O)O)c4ccccc4)CC3)cc2c1` (configuration not stated) [3-{[1-(5-Carbamimidoyl-1H-indole-2-carbonyl)-piperidine-4-carbonyl]-amino}-3-phenyl-propionic acid] yielded an IC50 of 25000 nM.
For the compound `COc1ccc(C(CC(=O)O)NC(=O)CCNC(=O)c2cc3cc(C(=N)N)ccc3o2)cc1OC` (configuration not stated) [3-{3-[(5-Carbamimidoyl-benzofuran-2-carbonyl)-amino]-propionylamino}-3-(3,4-dimethoxy-phenyl)-propionic acid], the IC50 is 300 nM.
Consider `CN(CCC(=O)NC(CC(=O)O)c1ccccc1)C(=O)c1cc2cc(C(=N)N)ccc2o1` (configuration not stated) [3-{3-[(5-Carbamimidoyl-benzofuran-2-carbonyl)-methyl-amino]-propionylamino}-3-phenyl-propionic acid], for which the IC50 amounted to 250 nM.
`CN(CCC(=O)NC(CC(=O)O)c1ccccc1)C(=O)c1cc2cc(C(=N)N)ccc2[nH]1` (configuration not stated) [3-{3-[(5-Carbamimidoyl-1H-indole-2-carbonyl)-methyl-amino]-propionylamino}-3-phenyl-propionic acid]: the IC50 stood at 5000 nM.
Still for that read-out and setting: the figure for `N=C(N)c1ccc2oc(C(=O)NCCC(=O)NC(CC(=O)O)c3ccc(F)c(F)c3)cc2c1` (configuration not stated) [3-{3-[(5-Carbamimidoyl-benzofuran-2-carbonyl)-amino]-propionylamino}-3-(3,4-difluoro-phenyl)-propionic acid] is 500 nM; for `N=C(N)c1ccc2c(C(=O)NCCC(=O)NC(CC(=O)O)c3ccccc3)[nH]nc2c1` (configuration not stated) [3-{3-[(6-Carbamimidoyl-1H-indazole-3-carbonyl)-amino]-propionylamino}-3-phenyl-propionic acid] it is 630 nM.
On the same count and under the same terms, with `N=C(N)c1ccc2oc(C(=O)NCCC(=O)NC(CC(=O)O)c3cccnc3)cc2c1` (configuration not stated) [3-{3-[(5-Carbamimidoyl-benzofuran-2-carbonyl)-amino]-propionylamino}-3-pyridin-3-yl-propionic acid] the figure was 200 nM; with `N=C(N)c1ccc2oc(C(=O)NCCC(=O)NC(CC(=O)O)c3cc(F)ccc3F)cc2c1` (configuration not stated) [3-{3-[(5-Carbamimidoyl-benzofuran-2-carbonyl)-amino]-propionylamino}-3-(2,5-difluoro-phenyl)-propionic acid], 300 nM; with `N=C(N)c1ccc2[nH]c(C(=O)Nc3cccc(C(=O)NC(CC(=O)O)c4ccccc4)c3)cc2c1` (configuration not stated) [3-{3-[(5-Carbamimidoyl-1H-indole-2-carbonyl)-amino]-benzoylamino}-3-phenyl-propionic acid], 25000 nM.
Take `N=C(N)c1ccc2oc(C(=O)NCCC(=O)NC(CC(=O)O)c3cc(F)cc(F)c3)cc2c1` (configuration not stated) [3-{3-[(5-Carbamimidoyl-benzofuran-2-carbonyl)-amino]-propionylamino}-3-(3,5-difluoro-phenyl)-propionic acid]: the IC50 was 350 nM.
The compound `C#CC(CC(=O)O)NC(=O)CCNC(=O)c1cc2cc(C(=N)N)ccc2o1` (configuration not stated) [3-{3-[(5-Carbamimidoyl-benzofuran-2-carbonyl)-amino]-propionylamino}-pent-4-ynoic acid] displayed a half-inhibitory concentration (IC50) of 300 nM.
As to `N=C(N)c1ccc2oc(C(=O)N3Cc4ccccc4CC3C(=O)NC(CC(=O)O)c3ccccc3)cc2c1` (configuration not stated) [3-{[2-(5-Carbamimidoyl-benzofuran-2-carbonyl)-1,2,3,4-tetrahydro-isoquinoline-3-carbonyl]-amino}-3-phenyl-propionic acid], 5000 nM corresponded to half-maximal inhibition (IC50).
Same read-out and setting: with `N=C(N)c1ccc2oc(C(=O)N3CCCC(C(=O)NC(CC(=O)O)c4ccccc4)C3)cc2c1` (configuration not stated) [3-{[1-(5-Carbamimidoyl-benzofuran-2-carbonyl)-piperidine-3-carbonyl]-amino}-3-phenyl-propionic acid] the figure was 250 nM; with `CC(CC(=O)NC(CC(=O)O)c1ccccc1)NC(=O)c1cc2cc(C(=N)N)ccc2[nH]1` (configuration not stated) [3-{3-[(5-Carbamimidoyl-1H-indole-2-carbonyl)-amino]-butyrylamino}-3-phenyl-propionic acid], 5000 nM.
The same measure, in the same setting: the figure for `CCCCS(=O)(=O)NC(CNC(=O)CCNC(=O)c1cc2ccc(C(=N)N)cc2[nH]1)C(=O)O` (configuration not stated) [2-(Butane-1-sulfonylamino)-3-{3-[(6-carbamimidoyl-1H-indole-2-carbonyl)-amino]-propionylamino}-propionic acid] is 55 nM; for `N=C(N)c1ccc2[nH]c(C(=O)N3CCC[C@H]3C(=O)NC(CC(=O)O)c3ccccc3)cc2c1` (stereo partly drawn) [3-{[(S)-1-(5-Carbamimidoyl-1H-indole-2-carbonyl)-pyrrolidine-2-carbonyl]-amino}-3-phenyl-propionic acid] it is 5000 nM.
Same read-out and setting: the figure for `N=C(N)c1ccc2[nH]c(C(=O)NCCC(=O)NC(CC(=O)O)c3ccccc3)cc2c1` (configuration not stated) [3-{3-[(5-Carbamimidoyl-1H-indole-2-carbonyl)-amino]-propionylamino}-3-phenyl-propionic acid] is 8000 nM.
In turn, `N=C(N)c1ccc2oc(C(=O)NCCC(=O)NC(CC(=O)O)C(F)(F)F)cc2c1` (configuration not stated) [3-{3-[(5-Carbamimidoyl-benzofuran-2-carbonyl)-amino]-propionylamino}-4,4,4-trifluoro-butyric acid] came in with an IC50 of 250 nM.
For `N=C(N)c1ccc2oc(C(=O)N3CCC[C@@H]3C(=O)NC(CC(=O)O)c3ccccc3)cc2c1` (stereo partly drawn) [3-{[(R)-1-(5-Carbamimidoyl-benzofuran-2-carbonyl)-pyrrolidine-2-carbonyl]-amino}-3-phenyl-propionic acid], inhibition was half-maximal at 2000 nM (IC50).
Turning to `N=C(N)c1ccc2oc(C(=O)NCCC(=O)NC(CC(=O)O)c3ccccc3)cc2c1` (configuration not stated) [3-{3-[(5-Carbamimidoyl-benzofuran-2-carbonyl)-amino]-propionylamino}-3-phenyl-propionic acid], half-maximal inhibition (IC50) was put at 250 nM.
`CN(CC(=O)NC(CC(=O)O)c1ccccc1)C(=O)c1cc2cc(C(=N)N)ccc2[nH]1` (configuration not stated) [3-{2-[(5-Carbamimidoyl-1H-indole-2-carbonyl)-methyl-amino]-acetylamino}-3-phenyl-propionic acid]: the IC50 is 25000 nM.
As for `CC(C)(NC(=O)c1cc2cc(C(=N)N)ccc2[nH]1)C(=O)NC(CC(=O)O)c1ccccc1` (configuration not stated) [3-{2-[(5-Carbamimidoyl-1H-indole-2-carbonyl)-amino]-2-methyl-propionylamino}-3-phenyl-propionic acid], 250000 nM corresponded to half-maximal inhibition (IC50).
Turning to `CCCCS(=O)(=O)NC(CNC(=O)CCNC(=O)c1[nH]nc2cc(C(=N)N)ccc12)C(=O)O` (configuration not stated) [2-(Butane-1-sulfonylamino)-3-{3-[(6-carbamimidoyl-1H-indazole-3-carbonyl)-amino]-propionylamino}-propionic acid], the IC50 worked out at 53 nM.
As to `N=C(N)c1ccc2oc(C(=O)NCCC(=O)NC[C@H](N)C(=O)O)cc2c1` [(S)-2-Amino-3-{3-[(5-carbamimidoyl-benzofuran-2-carbonyl)-amino]-propionylamino}-propionic acid], the IC50 was found to be 200 nM.
For the compound `CCCCS(=O)(=O)N[C@@H](CNC(=O)CCNC(=O)c1cc2cc(C(=N)N)ccc2o1)C(=O)O` [(S)-2-(Butane-1-sulfonylamino)-3-{3-[(5-carbamimidoyl-benzofuran-2-carbonyl)-amino]-propionylamino}-propionic acid], the IC50 was found to be 35 nM.
`N=C(N)c1ccc2oc(C(=O)NCCC(=O)NC(CCc3c[nH]c4ccccc34)CC(=O)O)cc2c1` (configuration not stated) [3-{3-[(5-Carbamimidoyl-benzofuran-2-carbonyl)-amino]-propionylamino}-5-(1H-indol-3-yl)-pentanoic acid]: half-maximal inhibition (IC50) required 600 nM.
Regarding `N=C(N)c1ccc2c(C(=O)NCCC(=O)NC(CC(=O)O)c3ccccc3)c[nH]c2c1` (configuration not stated) [3-{3-[(6-Carbamimidoyl-1H-indole-3-carbonyl)-amino]-propionylamino}-3-phenyl-propionic acid], the IC50 is 2200 nM.
Same read-out and setting: the figure for `N=C(N)c1ccc2cc(C(=O)NCCC(=O)NC(CC(=O)O)c3ccccc3)[nH]c2c1` (configuration not stated) [3-{3-[(6-Carbamimidoyl-1H-indole-2-carbonyl)-amino]-propionylamino}-3-phenyl-propionic acid] is 1350 nM.
The same measure, in the same setting: with `N=C(N)c1ccc2[nH]c(C(=O)NC(CC(=O)NC(CC(=O)O)c3ccccc3)C(F)(F)F)cc2c1` (configuration not stated) [3-{3-[(5-Carbamimidoyl-1H-indole-2-carbonyl)-amino]-4,4,4-trifluoro-butyrylamino}-3-phenyl-propionic acid] the figure was 50000 nM.
`N=C(N)c1ccc2[nH]c(C(=O)NCC(=O)NC(CC(=O)O)c3ccccc3)cc2c1` (configuration not stated) [3-{2-[(5-Carbamimidoyl-1H-indole-2-carbonyl)-amino]-acetylamino}-3-phenyl-propionic acid]: the IC50 was 50000 nM.

Molecular target in a further test: not listed separately
Description: Inhibition of 20 uM ADP-induced platelet aggregation in human platelet-rich plasma.
`N=C(N)c1ccc2oc(C(=O)NCCC(=O)NC[C@H](NS(=O)(=O)c3ccc(I)cc3)C(=O)O)cc2c1` [(S)-3-{3-[(5-Carbamimidoyl-benzofuran-2-carbonyl)-amino]-propionylamino}-2-(4-iodo-benzenesulfonylamino)-propionic acid] came in with a half-inhibitory concentration (IC50) of 25 nM.
On the same count and under the same terms, the figure for `CN(C)c1cccc2c(S(=O)(=O)N[C@@H](CNC(=O)CCNC(=O)c3cc4cc(C(=N)N)ccc4o3)C(=O)O)cccc12` [(S)-3-{3-[(5-Carbamimidoyl-benzofuran-2-carbonyl)-amino]-propionylamino}-2-(5-dimethylamino-naphthalene-1-sulfonylamino)-propionic acid] is 65 nM.
